# Where a chain is given by its changes, count along the chain named.
# What was measured:
# FUS–GFP [1] = molecular target: T1, FUS–GFP (Homo sapiens, UniProt P35637, G156E); test: condensate ageing: FRAP and fibre formation; assay type: biochemical; settings: 30 uM compound, 50 mM KCl, 1 mM DTT, pH 7.4, shaking; condensates
# T1 construct: full-length FUS with C-terminal GFP; 6xHis-MBP tag cleaved by 3C protease; Sf9 insect cells; condensates at low salt
# T1 sequence (P35637 1-526 G156E): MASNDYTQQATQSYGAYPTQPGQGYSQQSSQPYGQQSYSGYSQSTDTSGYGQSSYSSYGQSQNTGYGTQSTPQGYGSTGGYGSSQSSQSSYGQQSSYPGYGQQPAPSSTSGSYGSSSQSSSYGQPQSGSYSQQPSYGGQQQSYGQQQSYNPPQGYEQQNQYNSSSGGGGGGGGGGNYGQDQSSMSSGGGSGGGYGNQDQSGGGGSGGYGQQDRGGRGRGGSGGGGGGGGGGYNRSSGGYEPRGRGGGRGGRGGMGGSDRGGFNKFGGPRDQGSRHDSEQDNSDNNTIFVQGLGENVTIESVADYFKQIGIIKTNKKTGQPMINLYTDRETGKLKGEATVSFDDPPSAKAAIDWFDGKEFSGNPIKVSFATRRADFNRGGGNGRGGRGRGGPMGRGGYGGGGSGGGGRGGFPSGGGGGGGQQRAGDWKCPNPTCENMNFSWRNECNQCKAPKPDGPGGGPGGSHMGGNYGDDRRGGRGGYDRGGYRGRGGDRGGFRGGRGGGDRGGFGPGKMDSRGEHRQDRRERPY
# FUS–GFP [2] = molecular target: T2, FUS–GFP (Homo sapiens, UniProt P35637); test: imaging of FUS-GFP condensates in vitro; assay type: biochemical; settings: 100 uM compound, 50 mM KCl, 1 mM DTT, pH 7.4, 0.7 uM FUS-GFP
# T2 construct: full-length FUS with C-terminal GFP; 6xHis-MBP tag cleaved by 3C protease; Sf9 insect cells; condensates at low salt
# T2 sequence (P35637 1-526): T1 sequence (P35637 1-526 G156E) with E156G
Compound,condensate ageing: FRAP and fibre formation (FUS–GFP [1]),imaging of FUS-GFP condensates in vitro (FUS–GFP [2])
NC(=O)CCCCC1CCSS1 (racemic) [lipoamide],Both lipoamide and lipoic acid reduced FUS-G156E–GFP condensate hardening and fiber formation,
O=C(O)CCCC[C@@H]1CCSS1 [lipoic acid],Both lipoamide and lipoic acid reduced FUS-G156E–GFP condensate hardening and fiber formation,
O=C1c2c(O)ccc(O)c2C(=O)c2c(NCCNCCO)ccc(NCCNCCO)c21 [mitoxantrone],,the fewer smaller drops with mitoxantrone

# Reference: publication PMC12463676, “Small-molecule dissolution of stress granules by redox modulation benefits ALS models” (Nature Chemical Biology, 2025)
